Data set [1] deals with carrageenin induced rat paw oedema. Put plainly: carrageenin induced rat paw oedema. The format is in vivo. To be noted: 200 mg/kg. Here is the method: PSS has a 49 % anti-inflammatory activity at 200 mg/kg on carrageenin induced rat paw oedema.
(The carrageenan paw model is a standard test of acute inflammation.)

The subject of a further data set is adjuvant arthritis. Put plainly: adjuvant arthritis inhibition. The settings on record: 100-200 mg/kg/day, for 14 days. The format is in vivo. As to the method: At doses ranging from 100-200 mg/kg/day, for 14 days, PSS inhibits adjuvant arthritis by 40 - 50 %. At equal dose levels, inhibition by ASA is 0 - 39 %.
For data set [2], the system named is serum reducing activity (SH group levels). Put plainly: correction of depressed serum reducing activity (SH group levels) in adjuvant arthritis. The format is in vivo. The settings on record: 200 mg/kg/day. As to the method:
In adjuvant arthritis, there is observed a depression of the serum reducing activity (SH group levels). PSS affords a 100 % correction at 200 mg/kg/day, while at equal dose levels ASA only affords a 60 % correction.

The test system of data set [3] is pain induced in mouse by i.p. injection of acetic acid. Put plainly: pain induced in mouse by i.p. injection of acetic acid. The format is in vivo. To be noted: i.p. acetic acid 30 minutes after oral administration. Here is the method: The inhibitory dose30 levels (ID-30) for pain induced in mouse by i.p. injection of acetic acid 30 minutes after oral administration were: 46.3, 98.15, 40 and 129.6 for PSS, PS (phosphosal), ASA and SS, respectively.

Data set [4] relates to motor activity inhibition produced by inflammatory pain. Put plainly: correction of motor activity inhibition produced by inflammatory pain. The format is in vivo. To be noted: 200 mg/kg. Here is the method:
PSS and ASA afford a 90 % correction of the motor activity inhibition produced by inflammatory pain at 200 mg/kg.

The subject of data set [5] is death by respiratory distress caused by i.v. injection of arachidonic acid. Description: protection from death by respiratory distress caused by i.v. arachidonic acid. The format is in vivo. Here is the method: ASA provides 72 % protection at 50 mg/kg.
A short description of the next data set: ulcerogenic activity. The settings on record: in vivo. An excerpt: The ulcerogenic activity of PSS (ulcerogenic index - 3.16) is lower than that of ASA (UI = 10.54) or indo- methacin (Ul - 25.28).
A further data set is described as follows: acute oral toxicity. The settings on record: in vivo, read-out: Acute toxicity (LDso).
Another data set has as its system beer yeast induced fever. Put plainly: beer yeast induced fever in the rat. The format is in vivo.
A short description of data set [6]: gastrointestinal hemorrhages, blood in faeces (radioisotope method). The format is in vivo. To be noted: 400 mg/kg, faeces excreted during the following 4 days.
Data set [7] in a line: salicylic acid levels after continued administration for 14 days. The format is in vivo. To be noted: continued administration at equal dose levels for 14 days.

`CC(=O)Oc1ccccc1C(=O)O` [ASA, acetyl salycilic acid] showed an anti-inflammatory activity in [1] of 61%. The “inhibition of adjuvant arthritis” value in the data set with adjuvant arthritis is 0 - 39%. In addition, the “correction of depression of the serum reducing activity (SH group levels)” value in data set [2] stood at 60%. The “inhibitory dose30 levels (ID-30)” value in data set [3] was 40. In addition, in data set [4], the “correction of the motor activity inhibition produced by inflammatory pain” value was 90%. Further, in data set [5] (50 mg/kg), the “protection from death by respiratory distress” value is listed as 72%. Moreover, the ulcerogenic index in “ulcerogenic activity” stood at 10.54. For the same molecule, in the data set “acute oral toxicity”, the LD50 is 1100 mg/kg.

On to `O=C(O)c1ccccc1OP(=O)(O)O` [PS, salicylic acid phosphonate], for which the “inhibitory dose30 levels (ID-30)” value in [3] came to 98.15. Further, the “correction of the motor activity inhibition produced by inflammatory pain” value in data set [4] is given as 65%.

`O=C(O)c1ccccc1OC(=O)c1ccccc1OP(=O)(O)O` [PSS, 2-(2-phosphonoxyphenylcarbonyloxy) benzoic acid] displayed an anti-inflammatory activity in [1] of 49%. Further, the “inhibition of adjuvant arthritis” value with adjuvant arthritis is listed as 40 - 50%. Further, the “correction of depression of the serum reducing activity (SH group levels)” value in [2] turned out to be 100%. In addition, the “inhibitory dose30 levels (ID-30)” value in [3] is reported as 46.3. Moreover, the “correction of the motor activity inhibition produced by inflammatory pain” value in data set [4] turned out to be 90%. Besides, the antipyretic activity entry in the data set on beer yeast induced fever was “superior to ASA and inferior to paracetamol”. Further, the “protection from death by respiratory distress” value in data set [5] (100 mg/kg) was “does not protect”. In the data set “ulcerogenic activity”, this molecule registered a ulcerogenic index of 3.16. In addition, the “Gastrointestinal hemorrhages, measured as µl blood in faeces” value in data set [6] is “significantly lower than those caused by ASA”. Moreover, the salicylic acid levels entry in data set [7] was “much higher salicylic acid levels for PSS than for ASA”. The LD50 in “acute oral toxicity” turned out to be 1590 mg/kg.

Consider `O=C(Oc1ccccc1C(=O)O)c1ccccc1O` [SS, 2-(2-hydroxyphenylcarbonyloxy) benzoic acid], for which the anti-inflammatory activity in data set [1] came out at 24%. In [3], the “inhibitory dose30 levels (ID-30)” value was 129.6. Moreover, the “correction of the motor activity inhibition produced by inflammatory pain” value in data set [4] is listed as 32.6%.

Molecule `COc1ccc2c(c1)c(CC(=O)O)c(C)n2C(=O)c1ccc(Cl)cc1` [indo- methacin] displayed a ulcerogenic index in the data set “ulcerogenic activity” of 25.28.

(Values after patent EP0254663B1, “2-(2-Phosphonoxyphenyl-Carbonyloxy)benzoic acid, salts thereof, a process for the preparation thereof” (SUEROS, ANTIBIOTICOS Y LABORATORIO DE VACUNOTERAPIA, …, priority 1986, dated 1988).)
